Experimental data taken from patent publication US20050124624A1, “4-(4-methylpiperazin-1-ylmethyl)-n-[4-methyl-3-(4-pyridin-3-yl)pyrimidin-2-yl-amino)phenyl]-benzamide for threating ang ii-mediated diseases” (priority 2002, published 2005).

What was measured:
[1] = system: mesenteric vessels; assay: Histomorphometry of mesenteric vessels (media wall:lumen ratio, trichrome ECM) in angiotensin II-infused rats; type: in vivo, Sprague Dawley rats
Procedure: (§1) Rats were randomized to receive minipumps filled vehicle (0.15 M NaCl, 1 mmol/l acetic acid) either with or without angiotensin II (58 ng/min), as previously described (Cao Z et col. Kidney Int 58:2437-2451, 2000).
Histochemistry and immunohistochemistry: Histological studies of vascular architecture were performed in a subset of animals (n=8/group). Animals in this subgroup were anesthetized with pentobarbital sodium (Nembutal, Bomac Laboratories, Asquith, Australia) and vessels were perfused at arterial pressure with 10% neutral buffered formalin via an intra-aortic cannula. Tissues were then prepared as previously described (Cooper M E et col.; Diabetes 43:1221-1228,1994). In brief, mesenteric vessels were placed in ice cold phosphate buffer where fat, connective tissue and veins were removed by blunt dissection. The resultant vessel preparation was then embedded in paraffin. Sections were then either histochemically or immunohistochemically stained. […]
Quantification of histopathology: The proportion of vessel wall occupied by the media was identified by immunolabelling for α-smooth muscle actinand the ratio of the wall:lumen quantified using of a video-imaging system (Video Pro 32, Leading Edge, Bedford Park, South Australia, Australia), connected to a light microscope (Zeiss, Oberkocken, Germany) with photographic attachment (Axiophot, Zeiss, Oberkocken, Germany). Using this device, the media (areas stained with the anti-actin antibody) and corresponding lumenal areas were determined in a median of 20 (range 10-35) vessels per animal and expressed as wall:lumen ratio, as previously described in other models of vascular hypertrophy (Kakinuma Yet col.; Kidney Int 42:46-55., 1992).
Quantification of ECM was performed on trichrome-stained sections by calculating the proportion of area occupied by ECM using computer-assisted image analysis as previously described (Lehr H A, et col. J Histochem Cytochem 45:1559-1565, 1997). […]

[2] = system: angiotensin II-infused rats; assay: Angiotensin II infusion in rats: systolic blood pressure and mesenteric vessel weight; conditions: 60 mg/kg daily gavage, 12 days
[3] = system: Transforming growth factor-β1 (TGF-β1); assay: Quantitative real-time RT-PCR of mesenteric vessel TGF-β1 gene expression; type: in vivo, Sprague Dawley rats; conditions: mesenteric vessel mRNA, compared with untreated counterparts also subjected to angiotensin II-infusion
Procedure: as §1
(§2) RNA Extraction and cDNA synthesis Frozen mesenteric vascular tissue, stored at −80° C. was homogenized (Ultra-Turrax, Janke and Kunkel, Staufen, Germany) and total RNA was isolated by the acid guanidinium thiocyanate-phenol-chloroform extraction method (Chomczynski P, Sacchi N; Anal Biochem 162:156-159,1987). The purified RNA was dissolved in sterile water, quantified spectrophotometrically and its concentration adjusted to 1 μg/μl. […]
(§3) Quantitative Real Time RT-PCR: Transforming growth factor-β1 (TGF-β1) and platelet-derived growth factor (PDGF) gene expression was quantified by real-time RT-PCR using sequence specific primers as previously reported by our group (Ahola H, et col.; American Journal of Pathology 155:907-913,1999). […] Both probes included a fluorescence reporter (6-carboxyfluorescein [FAM]) at the 5′-end and a fluorescent quencher (6-carboxytetramethylrhodamine [TAMRA]) at the 3′-end. For the relative quantification of the target gene and the endogenous reference 18S ribosomal RNA (18S), real-time quantitative RT-PCR was performed using an GeneAmp 5700 Sequence Detector (PE Biosystems, Foster City, Calif.) according to the manufacturer's instructions. […]

[4] = system: platelet-derived growth factor (PDGF); assay: Quantitative real-time RT-PCR of mesenteric vessel PDGF gene expression; type: in vivo, Sprague Dawley rats; conditions: mesenteric vessel mRNA, angiotensin II infused animals
Procedure: as §1, §2, §3

[5] = trichrome stained sections, 60 mg/kg daily

## Cc1ccc(NC(=O)c2ccc(CN3CCN(C)CC3)cc2)cc1Nc1nccc(-c2cccnc2)n1 [Imatinib, N-{5-[4-(4-methyl-piperazino-methyl)-benzoylamido]-2-methylphenyl}-4-(3-pyridyl)-2-pyrimidine-amine]
[1]; 60 mg/kg daily gavage, 12 days, p<0.001
  media wall:lumen ratio: 0.4
[1]; [5]
  extent of ECM expansion: significantly reduced
  media hypertrophy: significantly reduced
[2]; angiotensin II (58 ng/min) infused rats, tail-cuff, mean±SE, stated as no effect
  systolic blood pressure: 205±10 mmHg
[2]; animals receiving angiotensin II, p<0.001, significantly reduced
  mesenteric weight: 42 mg
[3]
  TGF-β expression: further increase
[4]
  PDGF gene expression: unaffected
